Assay results published in patent publication US20230226095A1, “METHODS AND COMPOSITIONS FOR TREATING C[…]” (The Children's Medical Center Corporation, priority 2020, published 2023).

B1: recombinant amphiregulin: recombinant epidermal growth factor-like cytokine amphiregulin, necessary for tissue repair (protein, UniProt P15514 101-187, looked up)
Amphiregulin: SVRVEQVVKPPQNKTESENTSDKPKRKKKGGKNGKNRRNRKKKNPCNAEFQNFCIHGECKYIEHLEAVTCKCQQEYFGERCGEKSMK

Key:
lung tissue Treg cells = assay: Daily intra-tracheal instillation of Poly I:C, flow cytometry of lung T cells; format: in vivo, mice
Text: To investigate the mechanism by which Notch4 licenses lung tissue inflammation in viral respiratory infections, its role in Poly I:C-induced airway inflammation was first examined. Poly I:C stimulates Toll like receptor 3 and the downstream viral RNA sensors cytoplasmic retinoic acid-inducible gene I (RIG-I) and melanoma differentiation-associated protein 5 (MDA5), thus providing a proxy model of RNA viral infections (Broggi et al., 2020; Iwasaki and Pillai, 2014; Kato et al., 2006). […] Treg cell specific deletion of Notch4 using a Foxp3-driven Cre recombinase (Foxp3YFPCre) and floxed Notch4 allele (Foxp3YFPCreNotch4Δ/Δ) protected the mice from the weight loss induced by the Poly I:C treatment (data not shown).
(§1) Polyinosinic-polycytidylic acid (Poly I:C) mouse model. Mice were treated intratracheally with 2.5 mg/kg of Poly I:C HMW (InvivoGen) daily for six consecutive days. The weight of the mice was recorded daily upon application of the Poly I:C. The mice were subjected to airway hyperresponsiveness at day 7, then euthanized and analyzed. For blockading amphiregulin, mice were treated with a peptide spanning amino acids 91140 of the middle region of the human amphiregulin preproprotein (amphiregulin91-140 peptide; Mybiosource). The peptide was given intratracheally at 10 µg/ml in PBS in a final volume of 100 µl. For the amphiregulin neutralizing antibody tests, the mice were given intraperitoneally 20 µg of goat anti-mouse amphiregulin mAb (clone AF989; R&D systems) or isotype control mAb (clone AB-108-C; R&D systems) daily for the duration of the experiment.

Treg cells = assay: In vitro induction of Notch4 expression in Treg cells; format: cell-based; conditions: Treg cells from PBS or Poly I:C-treated mice
Experimental: To further elucidate the mechanisms of Notch4 induction in Treg cells, in vitro studies were conducted to examine the capacity of Poly I:C and cytokine treatment to upregulate Notch4 expression in Treg cells isolated from PBS or Poly I:C-treated mice.

lung macrophages = assay: Lung macrophage M1/M2 polarization in vitro upon Poly I:C treatment; format: cell-based, mice; conditions: in vitro treatment with Poly I:C
Experimental: Regulatory T-cell co-cultures with macrophages. Macrophages cells are isolated from lungs of Poly I:C-treated mice. Macrophages were isolated based on CD45^+ F4/80^+ MHCII^+. Macrophages were then co-cultured (at 1:1 concentration) with lungs Treg cells from Foxp3^YFPCre or Foxp3^YFPCreNotch4^Δ/Δ mice Poly I:C-treated mice. Cells were treated with Poly I:C at a concentration of 10 ug/ml for three days. After 72 h, M1 (F4/80^+ MHCII^+ CD68^+ CD80^+CD86^+) and M2 (F4/80^+ MHCII^+ CD163^+ CD206^+) polarization was measured by flow cytometric analysis.
M1 and M2 gating strategy. M1 was defined as follows: CD45^+CD4^-F4/80^+MHCII^+ CD68^+ CD80^+CD86^+ while M2 macrophages were defined as follows: CD45^+CD4^-F4/80^+ MHCII+CD163+CD206+.

[1] = tested on: Foxp3YFPCre mice treated with Poly I:C; assay: Recombinant amphiregulin therapy in Poly I:C-induced lung inflammation; format: in vivo; conditions: data not shown
Text: To establish the role of amphiregulin in the protection against lung inflammation induced by Notch4 depletion, the capacity of recombinant amphiregulin therapy to rescue Poly I:C-induced lung inflammation was examined. […] Recombinant amphiregulin also reversed the skewing of lung macrophages towards an M1 phenotype upon in vitro treatment with Poly I:C (FIG. 7H), mirroring the same effect of Foxp3YFPCreNotch4Δ/Δ Treg cells (data not shown).
as §1

[2] = daily intra-tracheal for 6 consecutive days

Molecule | expression of Hippo pathway effector Yap in lung tissue Treg cells (lung tissue Treg cells; Poly I:C treatment) | expression of Wnt pathway effector beta-Catenin in lung tissue Treg cells (lung tissue Treg cells; Poly I:C treatment) | expression of Notch4 on CD4+ Teff cells (lung tissue Treg cells; [2]) | frequencies and absolute numbers of Notch4 expressing lung tissue Treg cells and MFI of Notch4 (lung tissue Treg cells; [2]) | Notch4 expression in lung Treg cells (Treg cells) | Notch4 expression in splenic Treg cells (Treg cells) | skewing of lung macrophages towards an M1 phenotype (lung macrophages) | epithelial barrier function ([1]; Poly I:C treatment) | inflammatory responses induced by Poly I:C treatment [1] | weight loss induced by Poly I:C treatment [1]
Polyinosinic-polycytidylic acid [Poly I:C] | potently induced | unchanged | minimal expression | sharp progressive increase | increased Notch4 expression | not splenic |  |  |  | 
B1 |  |  |  |  |  |  | reversed | restoration of an intact epithelial barrier function | largely abrogated | largely abrogated
